From patent US20240059693A1, “FUSED BICYCLIC PYRAZOLE DERIVATIVES AND METHODS OF USE THEREOF FOR THE TREATMENT OF HERPESVIRUSES” (Merck Sharp & Dohme LLC, priority 2020, published 2024)
Where two headings read alike, the source gives them in different places.

Legend:
[1] = molecular target: T1, Human cytomegalovirus DNA polymerase (Human cytomegalovirus, UniProt P08546); experiment: HCMV polymerase assay (AlphaLISA); type: biochemical; details: HCMV DNA polymerase 0.2 nM, 60 minutes at 37° C.; read-out: CMV (IC50)
T1 construct: made in house; host or cells: SF21 insect cells (baculovirus vector)
Protocol: Human cytomegalovirus and varicella zoster virus DNA polymerases were expressed via baculovirus vector in SF21 cells and purified. Heterodimeric nucleic acid substrate used in the herpesvirus polymerase reactions was generated by annealing a 59-mer template to a 17-mer digoxigenin-labeled primer. Polymerase (HCMV final concentration of 0.2 nM; VZV final concentration of 0.4 nM) was combined with an inhibitor compound or DMSO in assay buffer (10 mM HEPES, pH 7.5, 25 mM KCl, 25 mM NaCl, 5 mM MgCl2, 5% glycerol, 0.67 mg/ml bovine serum albuminutes, and 1 mM tris(2-carboxyethyl)phosphine), and this mixture was pre-incubated for 30 minutes at room temperature in 384-well microtiter plates. The polymerization reaction was initiated by the addition of template/primer substrate (final concentration: 1.6 nM), and dNTPs (final concentration: 24 nM dCTP, 24 nMdGTP, 16 nM dATP, 16 nM dTTP, and 0.8 nM biotin-dUTP). After 60 minutes incubation at 37° C., reactions were terminated with quench buffer (25 mM HEPES pH 7.5, 100 mM NaCl, 0.25% Tween-20, 12 mM EDTA, and 1 mg/ml bovine serum albumin). Incorporation of biotinylated UTP was detected with 2.5-ug/ml anti-DIG AlphaLISA acceptor beads and 5-10 ug/ml streptavidin AlphaLISA donor beads (Perkin Elmer). Compound effects were normalized to the window defined by the controls (DMSO only and pre-quenched wells) and were fit using a 4-parameter algorithm to report an IC50.

HCMV Strain AD169 = experiment: Viral qPCR assay, HCMV in MRC-5 cells; type: cell-based, Human cytomegalovirus; details: read-out: CMV MRC5 Cell (EC50)
Protocol: (§1) MRCS cells, Vero cells, and MeWo cells were obtained from ATCC and were maintained at 37° C./5% CO2/90% relative humidity in Minimal Essential Medium with 10% fetal bovine serum, […] L-glutamine, 100 units/ml penicillin and 100 ug/ml streptomycin. Assay plates were prepared by dispensing compounds dissolved in DMSO into wells of 384 well collagen-coated plates using an ECHO acoustic dispenser. Each compound was tested in a 10-point, serial 3-fold dilution. Controls included uninfected cells and infected cells treated only with DMSO. Assays were initiated by mixing selected cells, in suspension, with virus, and dispensing 50 μl/well infected cells to pre-plated compounds. Plates were incubated at 37° C./5% CO2/90% relative humidity for ˜72 hrs to permit genomic replication, and infected cells were lysed by the addition of an equal volume of lysis buffer (10 mM Tris-HCl, pH8, 50 mM KCl, 2 mM MgCl2, 0.45% NP-40, 0.45% Tween-20, and 100 μg/ml proteinase K). An aliquot of the lysate was transferred to a 384-well PCR plate and incubated at 56° C. for 1 hour and then at 95° C. for 10 min. Levels of a viral gene and of the cellular control, PPIA (Thermo Fisher Assay ID=Hs04194521_s1), were measured in separate 10 μL qPCR assays using TaqMan® Gene Expression Master Mix (Applied Biosystems), and an 7900HT Fast Real-Time PCR System with 384-Well Block Module. 7-point, serial 10-fold dilutions of a plasmid standard were run on each plate to generate a standard curve, and genome copies numbers were calculated by plotting experimental Ct onto linear regression of the standard curve. Viral genome copy numbers were normalized by cellular control copy number, and compound effects were normalized to the window defined by the controls. Calculated % effects were fit using a 4-parameter algorithm, and EC50 was reported.
as §1, with “gene” for “gene and of the cellular control, PPIA (Thermo Fisher Assay ID=Hs04194521_s1),”, “in” for “in separate”, “Compound effects on viral” for “Viral”, “number” for “numbers were normalized by cellular control copy number, and compound effects”
HCMV: Strain AD169 Street was assayed in MRC-5 cells and was used at 0.05-0.1 pfu/cell. The assays were performed in either growth media or in the same media with 50% fetal bovine serum. Primer-probe set was Thermo Fisher Assay ID=AIFATFK.

[2] = Human betaherpesvirus 5, AD169, MRC5, 72 h

T1 sequence (P08546 whole entry): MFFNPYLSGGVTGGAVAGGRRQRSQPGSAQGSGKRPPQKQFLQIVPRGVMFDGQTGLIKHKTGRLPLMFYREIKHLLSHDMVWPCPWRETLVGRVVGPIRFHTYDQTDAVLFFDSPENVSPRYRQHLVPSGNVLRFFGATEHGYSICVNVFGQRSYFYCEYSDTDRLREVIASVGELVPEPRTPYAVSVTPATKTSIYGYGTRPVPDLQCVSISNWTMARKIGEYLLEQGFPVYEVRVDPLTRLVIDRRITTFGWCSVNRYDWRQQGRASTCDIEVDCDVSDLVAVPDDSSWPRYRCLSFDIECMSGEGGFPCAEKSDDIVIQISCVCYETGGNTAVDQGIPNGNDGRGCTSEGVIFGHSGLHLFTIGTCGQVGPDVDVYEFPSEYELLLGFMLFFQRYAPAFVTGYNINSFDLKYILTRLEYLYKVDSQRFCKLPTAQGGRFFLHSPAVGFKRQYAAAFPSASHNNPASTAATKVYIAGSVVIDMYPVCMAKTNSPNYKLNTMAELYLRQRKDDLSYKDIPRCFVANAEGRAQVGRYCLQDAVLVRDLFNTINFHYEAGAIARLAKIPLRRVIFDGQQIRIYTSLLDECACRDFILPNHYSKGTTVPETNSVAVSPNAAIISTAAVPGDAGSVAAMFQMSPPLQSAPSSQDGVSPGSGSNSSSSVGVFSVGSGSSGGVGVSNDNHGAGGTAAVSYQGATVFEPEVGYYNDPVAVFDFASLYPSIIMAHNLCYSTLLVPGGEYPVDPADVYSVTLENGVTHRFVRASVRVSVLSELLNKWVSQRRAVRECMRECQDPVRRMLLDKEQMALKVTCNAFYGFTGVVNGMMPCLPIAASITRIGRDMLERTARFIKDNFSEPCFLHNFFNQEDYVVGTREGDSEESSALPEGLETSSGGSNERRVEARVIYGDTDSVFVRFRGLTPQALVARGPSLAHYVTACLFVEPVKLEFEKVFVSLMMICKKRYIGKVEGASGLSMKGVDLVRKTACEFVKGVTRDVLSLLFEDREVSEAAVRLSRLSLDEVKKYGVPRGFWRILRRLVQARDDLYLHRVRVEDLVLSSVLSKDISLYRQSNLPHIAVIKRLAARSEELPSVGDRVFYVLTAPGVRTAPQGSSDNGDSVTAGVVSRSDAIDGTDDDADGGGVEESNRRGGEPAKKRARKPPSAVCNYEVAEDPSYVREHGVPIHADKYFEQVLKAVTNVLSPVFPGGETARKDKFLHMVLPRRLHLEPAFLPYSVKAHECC

IC50 [1] [nM] | Structure (SMILES) | EC50 (HCMV Strain AD169; [2]) [nM] | EC50 (HCMV Strain AD169; MRC5 cells, ~72 hrs) [nM]
31 | O=C1CC[C@H](CN2Cc3c(C(=O)NCc4ccc(Cl)cc4)nn(-c4nc(-c5ccccc5)cs4)c3C2)N1 [Compound 15] | 1100 | –
557 | Cn1nc(C(=O)NCc2ccc(Cl)cc2)c2c1CN(C[C@H]1CC(F)(F)C(=O)N1)C2 [Compound 81] | 1280 | –
83.7 | CC(C)[C@H]1c2c(c(C(=O)NCc3ccc(Cl)cc3)nn2C)CN1C(C)C1CCC(=O)N1 (single isomer, unassigned) [Compound 118] | – | 1600
150 | O=C1CC[C@@H](CN2Cc3c(C(=O)NCc4ccc(Cl)cc4)nn([C@H]4CCCOC4)c3C2)N1 [Compound 52] | 885 | –
70.9 | CC(C1CC(F)C(=O)N1)N1Cc2c(C(=O)NCc3ccc(Cl)cc3)nn(C)c2C1 (stereo not drawn) [Compound 75] | – | 2020
129 | O=C1CC[C@H](CN2Cc3c(C(=O)NCc4ccc(Cl)cc4)nn([C@H]4CCCOC4)c3C2)N1 [Compound 51] | 1800 | –
119 | O=C(NCc1ccc(Cl)cc1)c1nn(CCNC(=O)C2CCC2)c2c1CN(Cc1ccnc(F)c1)C2 [Compound 67] | – | –
1180 | CCC(C1CCC(=O)N1)N1Cc2c(C(=O)NCc3ccc(Cl)cc3)nn(C)c2C1 (stereo not drawn) [Compound 92] | – | 65900
702 | CC1c2c(c(C(=O)NCc3ccc(Cl)cc3)nn2C)CN1CC1CCC(=O)N1 (single isomer, unassigned) [Compound 108] | – | 1960
534 | O=C(NCc1ccc(Cl)cc1)c1nn(C(F)F)c2c1CN(CC13CC(C1)C(=O)N3)C2 [Compound 98] | 1400 | –
1810 | CCC1c2c(c(C(=O)NCc3ccc(Cl)cc3)nn2C)CN1CC1CCC(=O)N1 (single isomer, unassigned) [Compound 104] | – | 38700
77.6 | CC(C)[C@@H]1c2c(c(C(=O)NCc3ccc(Cl)cc3)nn2C)CN1C[C@@H]1CCC(=O)N1 [Compound 114] | 1100 | –
174 | Cc1nnc2n1C(CN1Cc3c(C(=O)NCc4ccc(Cl)cc4)nn(C)c3C1)CC2 (stereo not drawn) [Compound 97] | – | –
8610 | CCC(C1CCC(=O)N1)N1Cc2c(C(=O)NCc3ccc(Cl)cc3)nn(C)c2C1 (stereo not drawn) [Compound 91] | – | 99000
188 | CC(C)[C@H]1c2c(c(C(=O)NCc3ccc(Cl)cc3)nn2C)CN1C[C@H]1CCC(=O)N1 [Compound 113] | – | 4830
680 | CC(C)[C@H]1c2c(c(C(=O)NCc3ccc(Cl)cc3)nn2C)CN1C(C)C1CCC(=O)N1 (single isomer, unassigned) [Compound 117] | – | 4640
64.5 | CN(CCn1nc(C(=O)NCc2ccc(Cl)cc2)c2c1CN(Cc1ccncc1Cl)C2)C(=O)C1CCC1 [Compound 65] | – | –
64 | O=C(NCc1ccc(Cl)cc1)c1nn(CCNC(=O)C2CCC2)c2c1CN(Cc1c(F)cncc1F)C2 [Compound 64] | – | –
62.5 | Cn1nc(C(=O)NCc2ccc(C#N)c(F)c2)c2c1CN(C[C@H]1CCC(=O)N1)C2 [Compound 62] | – | –

IC50 [1] [nM] | Structure (SMILES) | EC50 (HCMV Strain AD169; [2]) [nM] | EC50 (HCMV Strain AD169; MRC5 cells, ~72 hrs) [nM]
2900 | CC1c2c(c(C(=O)NCc3ccc(Cl)cc3)nn2C)CN1C(C)C1CCC(=O)N1 (stereo not drawn) [Compound 110] | – | 22200
144 | C=CC[C@]1(CN2Cc3c(C(=O)NCc4ccc(Cl)cc4)nn(C)c3C2)CCC(=O)N1 [Compound 96] | 1120 | –
125 | O=C1CC[C@H](CN2Cc3c(C(=O)NCc4ccc(Cl)cc4)nn(C4CCOCC4)c3C2)N1 [Compound 50] | 1480 | –
25.8 | O=C1CC[C@H](CN2Cc3c(C(=O)NCc4ccc(Cl)cc4)nn(-c4ncc[nH]4)c3C2)N1 [Compound 14] | 1030 | –
157 | CC(C)(C)c1csc(-n2nc(C(=O)NCc3ccc(Cl)cc3)c3c2CN(C[C@H]2CCC(=O)N2)C3)n1 [Compound 21] | 2670 | –
976 | CC([C@@H]1CCC(=O)N1)N1Cc2c(C(=O)NCc3ccc(Cl)cc3)nn(C(F)F)c2C1 (stereo partly drawn) [Compound 72] | – | –
958 | CC([C@@H]1CCC(=O)N1)N1Cc2c(C(=O)NCc3ccc(Cl)cc3)nn(-c3nccs3)c2C1 (single isomer, unassigned) [Compound 6] | – | 5870
1710 | O=C(NCc1ccc(Cl)cc1)c1nn(CCNC(=O)C2CCC2)c2c1CN(Cc1ccncc1Cl)C2 [Compound 70] | – | –
566 | CC(C)[C@H]1c2c(c(C(=O)NCc3ccc(Cl)cc3)nn2C)CN1C(C)C1CCC(=O)N1 (single isomer, unassigned) [Compound 115] | 4240 | –
7850 | CC(=O)OCC1c2c(c(C(=O)NCc3ccc(Cl)cc3)nn2C)CN1C[C@H]1CCC(=O)N1 (single isomer, unassigned) [Compound 119] | – | 99000
87.5 | O=C1CC[C@H](CN2Cc3c(C(=O)NCc4ccc(Cl)cc4)nn([C@@H]4CCCOC4)c3C2)N1 [Compound 49] | 3540 | –
129 | CC(C)C(O)Cn1nc(C(=O)NCc2ccc(Cl)cc2)c2c1CN(C[C@H]1CCC(=O)N1)C2 (stereo partly drawn) [Compound 56] | 1800 | –
10900 | CC(C)[C@H]1c2c(c(C(=O)NCc3ccc(Cl)cc3)nn2C)CN1C(C)C1CCC(=O)N1 (single isomer, unassigned) [Compound 116] | – | 99000
800 | CCC(C1CCC(=O)N1)N1Cc2c(C(=O)NCc3ccc(Cl)cc3)nn(C)c2C1 (single isomer, unassigned) [Compound 89] | 7640 | –
5770 | CC1c2c(c(C(=O)NCc3ccc(Cl)cc3)nn2C)CN1CC1CCC(=O)N1 (single isomer, unassigned) [Compound 102] | – | 71200
13300 | Cn1nc(C(=O)NCc2ccc(Cl)cc2)c2c1C(CO)N(C[C@H]1CCC(=O)N1)C2 (single isomer, unassigned) [Compound 121] | 99000 | –
13300 | CC(C1CC(F)(F)C(=O)N1)N1Cc2c(C(=O)NCc3ccc(Cl)cc3)nn(C)c2C1 (single isomer, unassigned) [Compound 83] | 99000 | –
36.1 | O=C1CC[C@H](CN2Cc3c(C(=O)NCc4ccc(Cl)cc4)nn(-c4ncc(O)cn4)c3C2)N1 [Compound 17] | 51400 | –
124 | O=C1CC[C@@H](CN2Cc3c(C(=O)NCc4ccc(Cl)cc4)nn(C4CCOCC4)c3C2)N1 [Compound 53] | 2090 | –
